This assay concerns the target T1, glutathione S-transferase (GST)-fused full-length human Syk protein (Homo sapiens, UniProt P43405).
T1 construct: (GST)-fused full-length human Syk protein; GST (glutathione S-transferase); purchased Carna Biosciences
The experiment in a line: Syk enzyme assay. It counts as biochemical. The settings on record: Syk enzyme assay, Test Example 1; read-out: IC50 of Syk-inhibitory activity. A digest of the protocol:
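IC50 values come from a time-resolved FRET readout (615 and 665 nm) of substrate phosphorylation, measured after an EDTA stop and 1 h antibody binding. The kinase reaction ran 40 min at room temperature with 27 μM ATP and 0.4 μM biotin-peptide, following a 15 min compound preincubation with baculovirus-made GST-full-length human Syk.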
A word on the IC50: it is the concentration that inhibits the measured activity by half. `NC(=O)c1cc(F)c(N[C@@H]2CCCC[C@@H]2N)nc1Nc1cnc2c(NS(=O)(=O)c3ccc(Cl)cc3)cccc2c1` (relative stereo) [Example 41-6, 6-(cis-2-aminocyclohexylamino)-2-((8-(4-chlorophenylsulphonamide)quinolin-3-yl)amino)-5-fluoronicotinamide]: the concentration for half-maximal inhibition (IC50) fell in the range of 50 to 100 nM. Take `NC(=O)c1cc(F)c(N[C@@H]2CCCC[C@@H]2N)nc1Nc1cnc2c(NS(=O)(=O)c3cccnc3)cccc2c1` (relative stereo) [Example 41-8, 6-(cis-2-aminocyclohexylamino)-5-fluoro-2-((8-(pyridin-3-sulphonamide)quinolin-3-yl)amino)nicotinamide]: the IC50 lay in the range of 10 to 50 nM.

On to `NC(=O)c1cc(F)c(N[C@@H]2CCCC[C@@H]2N)nc1Nc1cnc2c(NC(=O)c3ccccn3)cccc2c1` (relative stereo) [Example 41-10, 6-(cis-2-aminocyclohexylamino)-5-fluoro-2-((8-picolinamidequinolin-3-yl)amino)nicotinamide], for which the 50% inhibitory concentration (IC50) is less than 10 nM.

As to `CC(C)(C)C(=O)Nc1cccc2cc(Nc3nc(N[C@@H]4CCCC[C@@H]4N)c(F)cc3C(N)=O)cnc12` (relative stereo) [Example 41-11, 6-(cis-2-aminocyclohexylamino)-5-fluoro-2-((8-pivalamidequinolin-3-yl)amino)nicotinamide], the IC50 is less than 10 nM.

Consider `NC(=O)c1cc(F)c(N[C@@H]2CCCC[C@@H]2N)nc1Nc1cc(O)c2ncccc2c1` (relative stereo) [Example 042-000], for which the half-inhibitory concentration (IC50) was less than 10 nM. Under `COc1cccc(Nc2nc(NC3CCCCC3N)c(F)cc2C(N)=O)c1` (stereo not shown) [Example 002-006] stands less than 10 nM; under `CN1CCN(c2ccc(Nc3nc(NC4CCCCC4N)c(F)cc3C(N)=O)cn2)CC1` (stereo not shown) [Example 002-021], 10 to 50 nM. Then `Cc1cc(Nc2nc(NC3CCCCC3N)c(F)cc2C(N)=O)cc(C)n1` (stereo not shown) [Example 002-022], with 10 to 50 nM. Turning to `Cc1ncc(Nc2nc(NC3CCCCC3N)c(F)cc2C(N)=O)cc1-c1ccccc1` (stereo not shown) [Example 002-023], the IC50 was less than 10 nM. Then `NC(=O)c1cc(F)c(NC2CCCCC2N)nc1Nc1cccc2c1cnn2CCN1CCCC1` (stereo not shown) [Example 002-026], with less than 10 nM; and `NC(=O)c1cc(F)c(NC2CCCCC2N)nc1Nc1cccc2c1cnn2CCN1CCOCC1` (stereo not shown) [Example 002-027], with less than 10 nM; and `NC(=O)c1cc(F)c(NC2CCCCC2N)nc1Nc1cccc2c1cnn2CC1CC1` (stereo not shown) [Example 002-028], with less than 10 nM. Then `NC(=O)c1cc(F)c(NC2CCCCC2N)nc1Nc1cccc2c1cnn2Cc1ccccc1` (stereo not shown) [Example 002-029], with 10 to 50 nM; and `CCOCCOCCn1ncc2c(Nc3nc(NC4CCCCC4N)c(F)cc3C(N)=O)cccc21` (stereo not shown) [Example 002-031], with less than 10 nM; and `NC(=O)c1cc(F)c(NC2CCCCC2N)nc1Nc1cccc2nn(Cc3ccccc3)cc12` (stereo not shown) [Example 002-033], with less than 10 nM. Then `COCCn1cc2c(Nc3nc(NC4CCCCC4N)c(F)cc3C(N)=O)cccc2n1` (stereo not shown) [Example 002-034], with less than 10 nM; and `CCOCCOCCn1cc2c(Nc3nc(NC4CCCCC4N)c(F)cc3C(N)=O)cccc2n1` (stereo not shown) [Example 002-035], with 10 to 50 nM. Consider `NC(=O)c1cc(F)c(NC2CCCCC2N)nc1Nc1ccc2c(cnn2Cc2ccccc2)c1` (stereo not shown) [Example 002-036], for which the 50% inhibitory concentration (IC50) lay within 50 to 100 nM. Then `CC(C)c1cncc(Nc2nc(NC3CCCCC3N)c(F)cc2C(N)=O)c1` (stereo not shown) [Example 002-039], with 10 to 50 nM; and `Cc1ncc(Nc2nc(NC3CCCCC3N)c(F)cc2C(N)=O)cc1N1CCCC1` (stereo not shown) [Example 002-040], with 10 to 50 nM; and `COCCn1cc2ccc(Nc3nc(NC4CCCCC4N)c(F)cc3C(N)=O)cc2n1` (stereo not shown) [Example 002-044], with 10 to 50 nM.

As for `CCOCCOCCn1cc2ccc(Nc3nc(NC4CCCCC4N)c(F)cc3C(N)=O)cc2n1` (stereo not shown) [Example 002-045], the IC50 lay within 10 to 50 nM. Then `NC(=O)c1cc(F)c(NC2CCCCC2N)nc1Nc1ccc2cnn(CC3CC3)c2c1` (stereo not shown) [Example 002-046], with less than 10 nM; and `NC(=O)c1cc(F)c(NC2CCCCC2N)nc1Nc1ccc2cnn(Cc3ccccc3)c2c1` (stereo not shown) [Example 002-047], with 10 to 50 nM.

Take `CCOCCOCCn1ncc2ccc(Nc3nc(NC4CCCCC4N)c(F)cc3C(N)=O)cc21` (stereo not shown) [Example 002-049]: the IC50 is 10 to 50 nM. Under `NC(=O)c1cc(F)c(NC2CCCCC2N)nc1Nc1ccnc(C(F)(F)F)c1` (stereo not shown) [Example 002-050] stands 10 to 50 nM; under `NC(=O)c1cc(F)c(NC2CCCCC2N)nc1Nc1ccnc(-c2ccc[nH]2)c1` (stereo not shown) [Example 002-051], less than 10 nM.

`NC(=O)c1cc(F)c(NC2CCCCC2N)nc1Nc1ccnc(-c2ccccc2)c1` (stereo not shown) [Example 002-052]: the 50% inhibitory concentration (IC50) was less than 10 nM. Then `CCOc1cc(Nc2nc(NC3CCCCC3N)c(F)cc2C(N)=O)cc(OCC)n1` (stereo not shown) [Example 002-061], with less than 10 nM; and `Cc1ccc(-c2cncc(Nc3nc(NC4CCCCC4N)c(F)cc3C(N)=O)c2)o1` (stereo not shown) [Example 002-062], with less than 10 nM; and `Cc1ccc(-c2cc(Nc3nc(NC4CCCCC4N)c(F)cc3C(N)=O)ccn2)o1` (stereo not shown) [Example 002-063], with less than 10 nM. Then `NC(=O)c1cc(F)c(NC2CCCCC2N)nc1Nc1cccn2ccnc12` (stereo not shown) [Example 002-064], with 100 to 1000 nM; and `NC(=O)c1cc(F)c(NC2CCCCC2N)nc1Nc1cncc(-c2cn[nH]c2)c1` (stereo not shown) [Example 002-069], with less than 10 nM; and `NC(=O)c1cc(F)c(NC2CCCCC2N)nc1Nc1ccnc(-c2cn[nH]c2)c1` (stereo not shown) [Example 002-070], with less than 10 nM. Then `Cc1cc(Nc2nc(NC3CCCCC3N)c(F)cc2C(N)=O)cnc1N1CCOCC1` (stereo not shown) [Example 002-071], with 10 to 50 nM; and `NC(=O)c1cc(F)c(NC2CCCCC2N)nc1Nc1cnc(N2CCOCC2)c(-c2ccoc2)c1` (stereo not shown) [Example 002-072], with 10 to 50 nM. On to `CN(C)c1ccc(Nc2nc(NC3CCCCC3N)c(F)cc2C(N)=O)cn1` (stereo not shown) [Example 002-074], for which the 50% inhibitory concentration (IC50) lay within 50 to 100 nM. Then `NC(=O)c1cc(F)c(NC2CCCCC2N)nc1Nc1ccc(NCCO)nc1` (stereo not shown) [Example 002-075], with 10 to 50 nM; and `COCCNc1ccc(Nc2nc(NC3CCCCC3N)c(F)cc2C(N)=O)cn1` (stereo not shown) [Example 002-076], with 50 to 100 nM; and `NC(=O)c1cc(F)c(NC2CCCCC2N)nc1Nc1ccc(N2CCCC2)nc1` (stereo not shown) [Example 002-078], with 10 to 50 nM.

Regarding `NC(=O)c1cc(F)c(NC2CCCCC2N)nc1Nc1ccc(OCCO)nc1` (stereo not shown) [Example 002-079], the IC50 was in the range of 50 to 100 nM. Then `NC(=O)c1cc(F)c(NC2CCCCC2N)nc1Nc1ccc(NCCCN2CCOCC2)nc1` (stereo not shown) [Example 002-081], with 10 to 50 nM; and `CCCOc1cc(Nc2nc(NC3CCCCC3N)c(F)cc2C(N)=O)ccn1` (stereo not shown) [Example 002-082], with less than 10 nM. Then `CC(C)COc1cc(Nc2nc(NC3CCCCC3N)c(F)cc2C(N)=O)ccn1` (stereo not shown) [Example 002-084], with less than 10 nM; and `COC(C)CCOc1cc(Nc2nc(NC3CCCCC3N)c(F)cc2C(N)=O)ccn1` (stereo not shown) [Example 002-085], with 10 to 50 nM.

In the case of `NC(=O)c1cc(F)c(NC2CCCCC2N)nc1Nc1ccnc(OCc2ccccc2)c1` (stereo not shown) [Example 002-086], the half-maximal inhibitory concentration (IC50) was 10 to 50 nM. Turning to `NC(=O)c1cc(F)c(NC2CCCCC2N)nc1Nc1ccc2cc(Cl)cnc2c1` (stereo not shown) [Example 002-087], the IC50 is 10 to 50 nM.

For `COc1ccc2ccc(Nc3nc(NC4CCCCC4N)c(F)cc3C(N)=O)cc2n1` (stereo not shown) [Example 002-088], the half-inhibitory concentration (IC50) was less than 10 nM.

On to `COc1ccnc2cc(Nc3nc(NC4CCCCC4N)c(F)cc3C(N)=O)ccc12` (stereo not shown) [Example 002-089], for which the half-inhibitory concentration (IC50) was in the range of 10 to 50 nM. Under `COCCOc1ccc2ccc(Nc3nc(NC4CCCCC4N)c(F)cc3C(N)=O)cc2n1` (stereo not shown) [Example 002-090] stands less than 10 nM; under `COCC(C)Oc1ccc2ccc(Nc3nc(NC4CCCCC4N)c(F)cc3C(N)=O)cc2n1` (stereo not shown) [Example 002-091], less than 10 nM; under `COC(C)CCOc1ccc2ccc(Nc3nc(NC4CCCCC4N)c(F)cc3C(N)=O)cc2n1` (stereo not shown) [Example 002-092], less than 10 nM.

As for `CCOCCOCCOc1ccc2ccc(Nc3nc(NC4CCCCC4N)c(F)cc3C(N)=O)cc2n1` (stereo not shown) [Example 002-093], the IC50 is less than 10 nM. Then `NC(=O)c1cc(F)c(NC2CCCCC2N)nc1Nc1cncc(C2CCCC2)c1` (stereo not shown) [Example 002-094], with 10 to 50 nM; and `NC(=O)c1cc(F)c(NC2CCCCC2N)nc1Nc1cncc(C2=CCCCC2)c1` (stereo not shown) [Example 002-095], with less than 10 nM.

With `NC(=O)c1cc(F)c(NC2CCCCC2N)nc1Nc1cncc(C2CCCCC2)c1` (stereo not shown) [Example 002-096], the 50% inhibitory concentration (IC50) lay within 10 to 50 nM.

Consider `COCC(C)Oc1ccc2cc(Nc3nc(NC4CCCCC4N)c(F)cc3C(N)=O)ccc2n1` (stereo not shown) [Example 002-098], for which the concentration for half-maximal inhibition (IC50) is less than 10 nM. Under `COC(C)CCOc1ccc2cc(Nc3nc(NC4CCCCC4N)c(F)cc3C(N)=O)ccc2n1` (stereo not shown) [Example 002-099] stands less than 10 nM; under `COc1ccc2cc(Nc3nc(NC4CCCCC4N)c(F)cc3C(N)=O)ccc2n1` (stereo not shown) [Example 002-101], less than 10 nM; under `COCCOc1nccc2c(Nc3nc(NC4CCCCC4N)c(F)cc3C(N)=O)cccc12` (stereo not shown) [Example 002-102], 10 to 50 nM. Then `CCOc1ccc2cc(Nc3nc(NC4CCCCC4N)c(F)cc3C(N)=O)ccc2n1` (stereo not shown) [Example 002-103], with less than 10 nM; and `CCCOc1ccc2cc(Nc3nc(NC4CCCCC4N)c(F)cc3C(N)=O)ccc2n1` (stereo not shown) [Example 002-104], with less than 10 nM. `CC(C)COc1ccc2cc(Nc3nc(NC4CCCCC4N)c(F)cc3C(N)=O)ccc2n1` (stereo not shown) [Example 002-105]: the 50% inhibitory concentration (IC50) was in the range of 10 to 50 nM. Under `CCC(C)COc1ccc2cc(Nc3nc(NC4CCCCC4N)c(F)cc3C(N)=O)ccc2n1` (stereo not shown) [Example 002-106] stands 50 to 100 nM.

The values above are taken from patent US8895585B2, “Nicotinamide derivative or salt thereof” (FUJIFILM Corporation, priority 2010, dated 2014).
